Read-outs that look alike come from different tables or passages of the source.
Key:
[1] = target: T1, 11β-hsd-1 enzyme (Homo sapiens, UniProt P28845); assay: 11β-hsd-1 enzyme assay, Kiapp determination (3H-cortisone to cortisol, radio-HPLC); format: biochemical; conditions: apparent Ki, 11β-hsd-1 enzyme; read-out: Ki app
[2] = target: T1, 11β-hsd-1 enzyme; assay: 11β-hsd-1 enzyme assay, percentage of inhibition (3H-cortisone to cortisol, radio-HPLC); format: biochemical
[3] = test system: normal subjects; conditions: ingestion; cited from earlier work
[4] = test system: healthy human volunteers; conditions: cited from earlier work
[5] = compound at 0.1 uM, read-out: % inh @ 0.1 uM

T1 sequence (P28845 whole entry, species assumed): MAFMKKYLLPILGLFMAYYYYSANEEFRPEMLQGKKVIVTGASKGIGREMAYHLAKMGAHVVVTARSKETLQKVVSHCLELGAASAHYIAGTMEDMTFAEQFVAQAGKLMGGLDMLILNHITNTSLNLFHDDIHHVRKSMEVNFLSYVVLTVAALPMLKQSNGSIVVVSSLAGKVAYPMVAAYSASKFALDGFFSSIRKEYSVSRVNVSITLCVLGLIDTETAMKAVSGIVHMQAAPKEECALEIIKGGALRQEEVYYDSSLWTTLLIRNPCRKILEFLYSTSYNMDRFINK

Row | Compound | Ki [1] | inhibition at 0.1 µM [2, 5] | inhibition at 0.1 µM ([2]; read-out: % inh @ 0.1 uM, compound at 0.1 uM) | reduction of intraocular pressure [3] | hepatic insulin sensitivity [4]
1 | COc1cc(-c2ccc(S(=O)(=O)Nc3cccc(C)n3)cc2)ccc1C#N [Example 270, 4′-Cyano-3′-methoxy-biphenyl-4-sulfonic acid (6-methyl-pyridin-2-yl)-amide] | 10.7 nM | 94.8% |  |  | 
2 | Cc1cccc(NS(=O)(=O)c2ccc(-c3ccc(C(F)(F)F)cn3)cc2)n1 [Example 271] | 20 nM | 87.7% |  |  | 
3 | Cc1cccc(NS(=O)(=O)c2ccc(-c3ccc(C#N)cc3C(F)(F)F)cc2)n1 [Example 272] | 12 nM | 100% |  |  | 
4 | Cc1cccc(NS(=O)(=O)c2ccc(-c3ccc(C#N)c(C)c3)cc2)n1 [Example 273] | 5.3 nM | 95.5% |  |  | 
5 | Cc1cccc(NS(=O)(=O)c2ccc(-c3ccc(C#N)c(Cl)c3)cc2)n1 [Example 274] | 3.5 nM | 94.4% |  |  | 
6 | Cc1cccc(NS(=O)(=O)c2ccc(-c3ccc(C#N)cc3)cc2C)n1 [Example 277, 4′-Cyano-3-methyl-biphenyl-4-sulfonic acid (6-methyl-pyridin-2-yl)-amide] | < 1 nM | 100% |  |  | 
7 | Cc1cccc(NS(=O)(=O)c2ccc(-c3ccc(F)cc3)cc2C)n1 [Example 279] | 4.5 nM | 100% |  |  | 
8 | Cc1cccc(NS(=O)(=O)c2ccc(-c3ccc(F)cc3)c(C)c2)n1 [Example 280] | 15 nM | 91% |  |  | 
9 | Cc1cccc(NS(=O)(=O)c2ccc(-c3ccc(C#N)cc3)c(C)c2)n1 [Example 281] | 10 nM | 92.9% |  |  | 
10 | Cc1cc(-c2ccc(S(=O)(=O)Nc3cccc(N)n3)cc2)ccc1C#N [Example 282, 4′-Cyano-3′-methyl-biphenyl-4-sulfonic acid (6-amino-pyridin-2-yl)-amide] | < 1 nM | 100% |  |  | 
11 | Cc1cccc(NS(=O)(=O)c2ccc(-c3ccc(C#N)cc3)cc2F)n1 [Example 283, 4′-Cyano-3-fluoro-biphenyl-4-sulfonic acid (6-methyl-pyridin-2-yl)-amide] | 5.7 nM | 100% |  |  | 
12 | Cc1cccc(NS(=O)(=O)c2ccc(-c3ccc(C#N)cc3)c(F)c2)n1 [Example 284, 4′-Cyano-2-fluoro-biphenyl-4-sulfonic acid (6-methyl-pyridin-2-yl)-amide] | 3.4 nM | 100% |  |  | 
13 | Cc1cccc(NS(=O)(=O)c2ccc(-c3ccc(C#N)cc3)c(C(F)(F)F)c2)n1 [Example 285, 4′-Cyano-2-trifluoromethyl-biphenyl-4-sulfonic acid (6-methyl-pyridin-2-yl)-amide] | 2.9 nM | 100% |  |  | 
14 | Cc1cccc(NS(=O)(=O)c2ccc(-c3ccc(C#N)cc3)cc2O)n1 [Example 286, 4′-Cyano-3-hydroxy-biphenyl-4-sulfonic acid (6-methyl-pyridin-2-yl)-amide] | 6.2 nM | 100% |  |  | 
15 | N#Cc1ccc(-c2ccc(S(=O)(=O)Nc3ccc4ccccc4n3)cc2)nc1 [Example 288] | 11 nM | 91% |  |  | 
16 | CC1(C)[C@@H](OC(=O)CCC(=O)O)CC[C@]2(C)[C@H]3C(=O)C=C4[C@@H]5C[C@@](C)(C(=O)O)CC[C@]5(C)CC[C@@]4(C)[C@]3(C)CC[C@@H]12 [carbenoxolone] |  |  |  | 20% | improved

Further lines, with some results ahead:

Row | Ki [1] | inhibition at 0.1 µM [2, 5] | inhibition at 0.1 µM ([2]; read-out: % inh @ 0.1 uM, compound at 0.1 uM) | Compound | reduction of intraocular pressure [3] | hepatic insulin sensitivity [4]
17 | 68 nM | 73.9% |  | N#Cc1ccc(-c2ccc(S(=O)(=O)Nc3ccc4ccccc4n3)cc2)cn1 [Example 289] |  | 
18 | 12 nM | 100% |  | N#Cc1ccc(-c2ccc(S(=O)(=O)Nc3ccc4ccccc4n3)cn2)cc1 [Example 290, 6-(4-Cyano-phenyl)-pyridine-3-sulfonic acid quinolin-2-ylamide] |  | 
19 | 27 nM | 92.5% |  | O=S(=O)(Nc1ccc2ccccc2n1)c1ccc(-c2ccc(F)cc2)nc1 [Example 291] |  | 
20 | 49 nM | 72.4% |  | Cc1cc(-c2ccc(S(=O)(=O)Nc3ccc4ccccc4n3)cn2)ccc1F [Example 292] |  | 
21 | 6.4 nM | 100% |  | N#Cc1ccc(-c2ccc(S(=O)(=O)Nc3cccc(C4CC4)n3)cn2)cc1 [Example 293, 6-(4-Cyano-phenyl)-pyridine-3-sulfonic acid (6-cyclopropyl-pyridin-2-yl)-amide] |  | 
22 | 7.3 nM | 94.6% |  | O=S(=O)(Nc1cccc(C2CC2)n1)c1ccc(-c2ccc(C(F)(F)F)cc2)nc1 [Example 294] |  | 
23 | 2.3 nM | 100% |  | Cc1cccc(NS(=O)(=O)c2sc3ccc(C#N)cc3c2C)n1 [Example 295, 5-Cyano-3-methyl-benzo[b]thiophene-2-sulfonic acid (6-methyl-pyridin-2-yl)-amide] |  | 
24 | 11 nM | 88.3% |  | Cc1cccc(NS(=O)(=O)N2CCc3ccccc3C2)n1 [Example 300] |  | 
25 | 4.9 nM | 100% |  | Cc1cccc(NS(=O)(=O)N2CCC(c3ccc(F)cc3)CC2)n1 [Example 301] |  | 
26 | 7.6 nM | 89.3% |  | CCc1cccc(NS(=O)(=O)N2CCc3ccccc3C2)n1 [Example 303] |  | 
27 | 20 nM | 79.6% |  | Cc1cc(C)nc(NS(=O)(=O)N2CCc3ccccc3C2)c1 [Example 304] |  | 
28 | 7.4 nM | 100% |  | Cc1cccc(NS(=O)(=O)N2CCC(c3ccccc3)CC2)n1 [Example 306] |  | 
29 | < 1 nM | 95.7% |  | N#Cc1ccc(C2CCN(S(=O)(=O)Nc3ccc4ccccc4n3)CC2)cc1 [Example 308] |  | 
30 | 7.6 nM | 90% |  | Cc1cccc(NS(=O)(=O)N2CCC(c3cccc(F)c3)CC2)n1 [Example 309] |  | 
31 | 18 nM |  | 100% | Cc1cccc(NS(=O)(=O)N2CCC(c3ccc(C#N)cc3)CC2)n1 [Example 310] |  | 
32 | 2.6 nM | 100% |  | Cc1cc(C)nc(NS(=O)(=O)N2CCC(c3ccc(C#N)cc3)CC2)c1 [Example 311] |  | 
33 | 52 nM | 71.8% |  | Cc1cccc(NS(=O)(=O)N2CCC(Oc3ccccc3)CC2)n1 [Example 314] |  | 
34 | 25 nM | 86.1% |  | O=S(=O)(Nc1ccc2ccccc2n1)N1CCc2conc2CC1 [Example 315] |  | 
35 | 67 nM | 67.4% |  | O=S(=O)(Nc1ccc2ccccc2n1)N1CCC(c2ccccn2)CC1 [Example 316] |  | 
36 | < 1 nM | 100% |  | N#Cc1ccc(C2CCN(S(=O)(=O)Nc3cccc(N)n3)CC2)cc1 [Example 317, 4-(4-Cyano-phenyl)-piperidine-1-sulfonic acid (6-amino-pyridin-2-yl)-amide] |  | 
